Assay results from patent US8263606B2 (Xenon Pharmaceuticals Inc., priority 2008, dated 2012).

Key:
sodium channel = assay: Guanidine influx assay (14C-guanidine radiotracer flux, in vitro); type: cell-based, human or rat; details: guanidine influx assay using a known cell line that expresses a sodium channel
Method in brief: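 Human or rat sodium channels stably expressed in endogenous or recombinant cells, plated ~100,000 cells/well for 20-24 h at 37 °C. Cells were treated with test agent in low-sodium choline HEPES saline plus aconitine and 14C-guanidine at ambient temperature, washed, and counted by scintillation; IC50 from 4-parameter logistic fit.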

CYP3A4 = CYP3A4 (Homo sapiens, UniProt P08684); assay: Cytochrome P450 (CYP450) Inhibition Assay, CYP3A4 (Vivid fluorescence, BOMCC substrate); details: human, P450 Baculosomes (recombinant CYP3A4), probe BOMCC (Vivid substrate)
Chain of CYP3A4 (P08684 whole entry): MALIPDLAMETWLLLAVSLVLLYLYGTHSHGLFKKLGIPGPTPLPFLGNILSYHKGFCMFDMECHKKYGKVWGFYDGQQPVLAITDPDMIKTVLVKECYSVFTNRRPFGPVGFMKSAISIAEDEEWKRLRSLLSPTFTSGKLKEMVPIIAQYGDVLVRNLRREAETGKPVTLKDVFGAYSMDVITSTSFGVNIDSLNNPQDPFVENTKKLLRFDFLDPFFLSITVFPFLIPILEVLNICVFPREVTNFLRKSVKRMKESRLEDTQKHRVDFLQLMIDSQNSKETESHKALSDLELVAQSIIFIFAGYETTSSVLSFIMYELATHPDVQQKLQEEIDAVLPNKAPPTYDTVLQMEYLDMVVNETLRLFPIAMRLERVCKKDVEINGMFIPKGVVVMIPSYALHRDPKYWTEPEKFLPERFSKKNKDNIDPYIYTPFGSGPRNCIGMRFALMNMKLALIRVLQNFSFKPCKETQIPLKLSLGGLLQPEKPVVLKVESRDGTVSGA

Row | Compound | IC50 (sodium channel; activity level class) [µM] | melting point [°C] | inhibition at 10 µM (CYP3A4) [%] | IC50 (sodium channel) [µM]
1 | O=C1Nc2ccccc2C12COc1cc3c(cc12)CCCC3 (stereo not drawn) [Example 3.45, 5′,6′,7′,8′-tetrahydrospiro[indole-3,3′-naphtho[2,3-b]furan]-2(1′H)-one] | 1 to 10 | > 230 | > 50 | –
2 | Cc1noc2cc3c(cc12)C1(CO3)C(=O)N(Cc2ccccc2C(F)(F)F)c2ccccc21 (stereo not drawn) [Example 9.41, 3-methyl-1′-[2-(trifluoromethyl)benzyl]spiro[furo[3,2-f][1,2]benzisoxazole-5,3′-indol]-2′(1′H)-one] | 0.1 to 1 | 192 to 194 | > 50 | –
3 | O=C1NCC(CN2C(=O)C3(COc4cc5c(cc43)CCO5)c3ccccc32)O1 (stereo not drawn) [Example 9.10, 1′-[(2-oxo-1,3-oxazolidin-5-yl)methyl]-5,6-dihydrospiro[benzo[1,2-b:5,4-b′]difuran-3,3′-indol]-2′(1′H)-one] | 1 to 10 | 197 to 198 | < 50 | –
4 | O=C1Nc2cccc(Cl)c2C12COc1cc3c(cc12)CCO3 (stereo not drawn) [Example 3.1, 4′-chloro-5,6-dihydrospiro[benzo[1,2-b:5,4-b′]difuran-3,3′-indol]-2′(1′H)-one] | 0.001 to 0.1 | > 200 | > 50 | –
5 | N#CCN1C(=O)C2(COc3cc4c(cc32)OCO4)c2ccccc21 (stereo not drawn) [Example 4.73, (2′-oxospiro[furo[2,3-f][1,3]benzodioxole-7,3′-indol]-1′(2′H)-yl)acetonitrile] | 0.001 to 0.1 | 170 to 172 | > 50 | –
6 | COc1cc(CN2C(=O)C3(COc4cc5c(cc43)OCCO5)c3ccccc32)ccc1F (stereo not drawn) [Example 4.95, 1-(4-fluoro-3-methoxybenzyl)-2,3-dihydrospiro[furo[2,3-g][1,4]benzodioxine-8,3′-indol]-2′(1′H)-one] | 0.001 to 0.1 | 161 to 163 | > 50 | –
7 | CN(C)c1ccc(CN2C(=O)C3(COc4cc5c(cc43)OCCO5)c3ccccc32)cn1 (stereo not drawn) [Example 32.1, 1′-{[6-(dimethylamino)pyridin-3-yl]methyl}-2,3-dihydrospiro[furo[2,3-g][1,4]benzodioxine-8,3′-indol]-2′(1′H)-one] | – | 93 to 95 | < 50 | 0.001 to 0.1
8 | O=C1N(Cc2ccccn2)c2ccccc2C12COc1ccc3nonc3c12 (stereo not drawn) [Example 4.124, 1′-(pyridin-2-ylmethyl)spiro[furo[3,2-e][2,1,3]benzoxadiazole-8,3′-indol]-2′(1′H)-one] | 0.001 to 0.1 | 180 to 182 | < 50 | –
9 | O=C1OCCN1CCN1C(=O)C2(COc3cc4c(cc32)CCO4)c2ccccc21 (stereo not drawn) [Example 9.3, 1′-[2-(2-oxo-1,3-oxazolidin-3-yl)ethyl]-5,6-dihydrospiro[benzo[1,2-b:5,4-b′]difuran-3,3′-indol]-2′(1′H)-one] | 1 to 10 | 185 to 186 | > 50 | –
10 | O=C1N(Cc2ncccc2C(F)(F)F)c2ccccc2C12COc1ccc3nonc3c12 (stereo not drawn) [Example 11.107, 1′-{[3-(trifluoromethyl)pyridin-2-yl]methyl}spiro[furo[3,2-e][2,1,3]benzoxadiazole-8,3′-indol]-2′(1′H)-one] | – | 212 to 215 | > 50 | 1 to 10
11 | O=C1N(Cc2ccccn2)c2ccccc2C12COc1cc3[nH]ncc3cc12 (stereo not drawn) [Example 46.1, 1′-(pyridin-2-ylmethyl)-1H-spiro[furo[3,2-f]indazole-5,3′-indol]-2′(1′H)-one] | – | 117 to 119 | < 50 | 0.1 to 1
12 | Nc1ccc2c(c1)OCC21C(=O)N(C[C@H]2CCCO2)c2ccccc21 (stereo partly drawn) [Example 11.47, 6-amino-1′-[(2R)-tetrahydrofuran-2-ylmethyl]spiro[1-benzofuran-3,3′-indol]-2′(1′H)-one] | – | 71 to 74 | > 50 | 1 to 10
13 | O=C1N(Cc2ncccn2)c2ccccc2C12COc1cc3c(cc12)CCO3 (stereo not drawn) [Example 9.5, 1′-(pyrimidin-2-ylmethyl)-5,6-dihydrospiro[benzo[1,2-b:5,4-b′]difuran-3,3′-indol]-2′(1′H)-one] | 0.001 to 0.1 | 203 to 205 | < 50 | –
14 | Cn1c(=O)oc2cc3c(cc21)OCC31C(=O)N(C(c2ccccc2)c2ccccc2)c2ccccc21 (stereo not drawn) [Example 2.16, 1′-(diphenylmethyl)-3-methylspiro[furo[2,3-f][1,3]benzoxazole-7,3′-indole]-2,2′(1′H,3H)-dione] | ≥ 10 | 228 to 229 | < 50 | –
15 | Cc1nc2cc3c(cc2s1)C1(CO3)C(=O)N(CCC(C)C)c2ccccc21 (stereo not drawn) [Example 4.56, 2-methyl-1′-(3-methylbutyl)spiro[furo[2,3-f][1,3]benzothiazole-7,3′-indol]-2′(1′H)-one] | 1 to 10 | 137 to 138 | > 50 | –
16 | N#Cc1cc2c(cc1F)OCC21C(=O)Nc2ccccc21 (stereo not drawn) [Example 3.30, 6-fluoro-2′-oxo-1′,2′-dihydrospiro[1-benzofuran-3,3′-indole]-5-carbonitrile] | 1 to 10 | 222 to 224 | < 50 | –
17 | Cc1cccc(NC(=O)c2ccccc2CN2C(=O)C3(COc4cc5c(cc43)CCO5)c3ccccc32)c1 (stereo not drawn) [Example 12.19, N-(3-methylphenyl)-2-[(2′-oxo-5,6-dihydrospiro[benzo[1,2-b:5,4-b′]difuran-3,3′-indol]-1′(2′H)-yl)methyl]benzamide] | – | 229 to 231 | > 50 | 1 to 10
18 | N#CCCN1C(=O)C2(COc3cc4c(cc32)OCO4)c2ccccc21 (stereo not drawn) [Example 4.80, 3-(2′-oxospiro[furo[2,3-f][1,3]benzodioxole-7,3′-indol]-1′(2′H)-yl)propanenitrile] | 0.001 to 0.1 | 200 to 202 | > 50 | –
19 | CCc1ccccc1NC(=O)c1ccc(CN2C(=O)C3(COc4cc5c(cc43)CCO5)c3ccccc32)cc1 (stereo not drawn) [Example 12.34, N-(2-ethylphenyl)-4-[(2′-oxo-5,6-dihydrospiro[benzo[1,2-b:5,4-b′]difuran-3,3′-indol]-1′(2′H)-yl)methyl]benzamide] | – | 203 to 204 | > 50 | 1 to 10
20 | COC(=O)c1coc(CN2C(=O)C3(COc4cc5onc(C)c5cc43)c3ccccc32)n1 (stereo not drawn) [Example 9.58, methyl 2-[(3-methyl-2′-oxospiro[furo[3,2-f][1,2]benzisoxazole-5,3′-indol]-1′(2′H)-yl)methyl]-1,3-oxazole-4-carboxylate] | – | 148 to 152 | < 50 | 0.1 to 1
21 | O=C1N(CC2CNCCO2)c2ccccc2C12COc1cc3c(cc12)OCCO3 (stereo not drawn) [Example 11.102, 1-(morpholin-2-ylmethyl)-2,3-dihydrospiro[furo[2,3-g][1,4]benzodioxine-8,3′-indol]-2′(1′1-1)-one] | – | 154 to 159 | < 50 | 1 to 10
22 | NC(=O)c1ccc2c(c1)C1(COc3cc4c(cc31)OCCO4)C(=O)N2Cc1ccccn1 (stereo not drawn) [Example 31, 2′-oxo-1′-(pyridin-2-ylmethyl)-1′,2,2′,3-tetrahydrospiro[furo[2,3-g][1,4]benzodioxine-8,3′-indole]-5′-carboxamide] | – | 220 to 222 | < 50 | 0.1 to 1
23 | O=C1N(Cc2ccc(N/C=N\O)nc2)c2ccccc2C12COc1cc3c(cc12)OCCO3 (stereo not drawn) [Example 38, N′-hydroxy-N-{5-[(2′-oxo-2,3-dihydrospiro[furo[2,3-g][1,4]benzodioxine-8,3′-indol]-1′(2′H)-yl)methyl]pyridin-2-yl}imidoformamide] | – | 231 to 232 | < 50 | 0.001 to 0.1
24 | CN1CCC(CN2C(=O)C3(COc4cc5c(cc43)CCO5)c3ccccc32)CC1 (stereo not drawn) [Example 11.10, 1′-[(1-methylpiperidin-4-yl)methyl]-5,6-dihydrospiro[benzo[1,2-b:5,4-b′]difuran-3,3′-indol]-2′(1′H)-one] | – | 155 to 158 | > 50 | ≥ 10
25 | O=C1Nc2cccc(F)c2C12COc1cc3c(cc12)OCCO3 (stereo not drawn) [Example 3.33, 4′-fluoro-2,3-dihydrospiro[furo[2,3-g][1,4]benzodioxine-8,3′-indol]-2′(1′H)-one] | 0.001 to 0.1 | 282 to 285 | < 50 | –
26 | CCOCCNC(=O)c1ccc(CN2C(=O)C3(COc4cc5c(cc43)CCO5)c3ccccc32)cc1 (stereo not drawn) [Example 12.41, N-(2-ethoxyethyl)-4-[(2′-oxo-5,6-dihydrospiro[benzo[1,2-b:5,4-b′]difuran-3,3′-indol]-1′(2′H)-yl)methyl]benzamide] | – | 84 to 85 | > 50 | 0.1 to 1
27 | O=C(O)c1cccc(CN2C(=O)C3(COc4cc5c(cc43)OCCO5)c3ccccc32)c1 (stereo not drawn) [Example 11.86, 3-[(2′-oxo-2,3-dihydrospiro[furo[2,3-g][1,4]benzodioxine-8,3′-indol]-1′(2′H)-yl)methyl]benzoic acid] | – | 254 to 258 | < 50 | 1 to 10
28 | O=C1N(Cc2noc(C(F)(F)F)n2)c2ccccc2C12COc1cc3c(cc12)OCCO3 (stereo not drawn) [Example 11.90, 1′-{[5-(trifluoromethyl)-1,2,4-oxadiazol-3-yl]methyl}-2,3-dihydrospiro[furo[2,3-g][1,4]benzodioxine-8,3′-indol]-2′(1′H)-one] | – | 159 to 160 | > 50 | 0.001 to 0.1
